According to ChEMBL document CHEMBL4699602, “Stapled and Xenopus Glucagon-Like Peptide 1 (GLP-1)-Based Dual GLP-1/Gastrin Receptor Agonists with Improved Metabolic Benefits in Rodent Models of Obesity and Diabetes” (J Med Chem, 2020):
Where a SMILES comes first, the peptide text is derived from it.

Molecular target: Glucagon-like peptide 1 receptor (Homo sapiens, UniProt P43220)
Experiment: Agonist activity at human GLP-1R expressed in HEK293 cells assessed as stimulation of cAMP accumulation incubated for 20 mins
Type: functional, cell-based

Glucagon-like peptide 1 receptor, sequence (P43220 whole entry): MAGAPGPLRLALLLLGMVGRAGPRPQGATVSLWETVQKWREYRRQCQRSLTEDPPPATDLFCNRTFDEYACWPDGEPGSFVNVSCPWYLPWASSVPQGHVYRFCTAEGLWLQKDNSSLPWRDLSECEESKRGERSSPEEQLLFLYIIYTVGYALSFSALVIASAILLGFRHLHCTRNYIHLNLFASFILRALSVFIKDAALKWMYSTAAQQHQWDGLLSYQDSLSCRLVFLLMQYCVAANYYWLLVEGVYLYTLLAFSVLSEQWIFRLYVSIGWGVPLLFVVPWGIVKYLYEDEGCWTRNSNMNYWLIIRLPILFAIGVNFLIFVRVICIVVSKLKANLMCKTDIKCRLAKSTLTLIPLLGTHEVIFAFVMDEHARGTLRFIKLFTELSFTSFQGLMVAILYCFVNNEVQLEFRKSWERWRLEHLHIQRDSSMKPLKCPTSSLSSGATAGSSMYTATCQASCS

| SMILES | EC50 [nM] |
| --- | --- |
| CC[C@H](C)[C@H](NC(=O)[C@H](CC(C)C)NC(=O)[C@H](Cc1c[nH]c2ccccc12)NC(=O)[C@H](CCC(=O)O)NC(=O)[C@H](CS)NC(=O)[C@H](Cc1ccccc1)NC(=O)[C@H](CCC(=O)O)NC(=O)[C@H](CCCCN)NC(=O)[C@H](C)NC(=O)[C@H](C)NC(=O)[C@H](CCC(=O)O)NC(=O)[C@H](CS)NC(=O)[C@H](CCC(=O)O)NC(=O)[C@H](CC(C)C)NC(=O)[C@H](Cc1ccc(O)cc1)NC(=O)[C@H](CCC(=O)O)NC(=O)[C@@H](NC(=O)[C@@H](NC(=O)[C@H](CC(=O)O)NC(=O)[C@H](CC(N)=O)NC(=O)[C@@H](NC(=O)[C@H](Cc1ccc(O)cc1)NC(=O)[C@@H](NC(=O)CNC(=O)[C@H](CCC(=O)O)NC(=O)C(C)(C)NC(=O)[C@@H](N)Cc1c[nH]cn1)[C@@H](C)O)[C@@H](C)O)C(C)C)[C@@H](C)O)C(=O)N[C@@H](CCCCN)C(=O)NCC(=O)N[C@@H](CCCCN)C(=O)N1CCC[C@H]1C(=O)N[C@@H](CO)C(=O)N[C@@H](CO)C(=O)NCC(=O)N[C@@H](C)C(=O)N1CCC[C@H]1C(=O)N1CCC[C@H]1C(=O)N1CCC[C@H]1C(=O)N[C@@H](CO)C(N)=O (HELM PEPTIDE1{H.[Aib].E.G.T.Y.T.N.D.V.T.E.Y.L.E.C.E.A.A.K.E.F.C.E.W.L.I.K.G.K.P.S.S.G.A.P.P.P.S.[am]}$$$$V2.0) | 0.28 |
| CC[C@H](C)[C@H](NC(=O)[C@H](CC(C)C)NC(=O)[C@H](Cc1c[nH]c2ccccc12)NC(=O)[C@H](CCC(=O)O)NC(=O)[C@H](CS)NC(=O)[C@H](Cc1ccccc1)NC(=O)[C@H](CCC(=O)O)NC(=O)[C@H](CCCCN)NC(=O)[C@H](C)NC(=O)[C@H](C)NC(=O)[C@H](CCC(=O)O)NC(=O)[C@H](CS)NC(=O)[C@H](CCC(=O)O)NC(=O)[C@H](CC(C)C)NC(=O)[C@H](Cc1ccc(O)cc1)NC(=O)[C@H](CCC(=O)O)NC(=O)[C@@H](NC(=O)[C@@H](NC(=O)[C@H](CC(=O)O)NC(=O)[C@H](CC(N)=O)NC(=O)[C@@H](NC(=O)[C@H](Cc1ccc(O)cc1)NC(=O)[C@@H](NC(=O)CNC(=O)[C@H](CCC(=O)O)NC(=O)C(C)(C)NC(=O)[C@@H](N)Cc1c[nH]cn1)[C@@H](C)O)[C@@H](C)O)C(C)C)[C@@H](C)O)C(=O)N[C@@H](CCCCN)C(=O)NCC(=O)N[C@@H](CCCCN)C(N)=O (HELM PEPTIDE1{H.[Aib].E.G.T.Y.T.N.D.V.T.E.Y.L.E.C.E.A.A.K.E.F.C.E.W.L.I.K.G.K.[am]}$$$$V2.0) | 0.73 |
| CC[C@H](C)[C@H](NC(=O)[C@H](CC(C)C)NC(=O)[C@H](Cc1c[nH]c2ccccc12)NC(=O)[C@H](CS)NC(=O)[C@@H](NC(=O)[C@H](Cc1ccccc1)NC(=O)[C@H](CCC(=O)O)NC(=O)[C@H](CCCCN)NC(=O)[C@H](C)NC(=O)[C@H](C)NC(=O)[C@H](CS)NC(=O)[C@H](CCC(=O)O)NC(=O)[C@H](CCC(=O)O)NC(=O)[C@H](CC(C)C)NC(=O)[C@H](Cc1ccc(O)cc1)NC(=O)[C@H](CCC(=O)O)NC(=O)[C@@H](NC(=O)[C@@H](NC(=O)[C@H](CC(=O)O)NC(=O)[C@H](CC(N)=O)NC(=O)[C@@H](NC(=O)[C@H](Cc1ccc(O)cc1)NC(=O)[C@@H](NC(=O)CNC(=O)[C@H](CCC(=O)O)NC(=O)C(C)(C)NC(=O)[C@@H](N)Cc1c[nH]cn1)[C@@H](C)O)[C@@H](C)O)C(C)C)[C@@H](C)O)[C@@H](C)CC)C(=O)N[C@@H](CCCCN)C(=O)NCC(=O)N[C@@H](CCCCN)C(=O)N1CCC[C@H]1C(=O)N[C@@H](CO)C(=O)N[C@@H](CO)C(=O)NCC(=O)N[C@@H](C)C(=O)N1CCC[C@H]1C(=O)N1CCC[C@H]1C(=O)N1CCC[C@H]1C(=O)N[C@@H](CO)C(N)=O (HELM PEPTIDE1{H.[Aib].E.G.T.Y.T.N.D.V.T.E.Y.L.E.E.C.A.A.K.E.F.I.C.W.L.I.K.G.K.P.S.S.G.A.P.P.P.S.[am]}$$$$V2.0) | 0.089 |
